{"source": "paper PMC12903969", "about": "“Discovery of a Novel and Potent Kir4.1 Inhibitor as a Safe and Rapid‐Onset Antidepressant Agent in Mice” (Advanced Science, 2025)", "key": {"[1]": {"biological_target": "T1, 5-HTT (serotonin transporter, SERT) (Homo sapiens, UniProt P31645)", "T1 construct": "expressed in transfected cells", "T1 sequence (P31645 whole entry)": "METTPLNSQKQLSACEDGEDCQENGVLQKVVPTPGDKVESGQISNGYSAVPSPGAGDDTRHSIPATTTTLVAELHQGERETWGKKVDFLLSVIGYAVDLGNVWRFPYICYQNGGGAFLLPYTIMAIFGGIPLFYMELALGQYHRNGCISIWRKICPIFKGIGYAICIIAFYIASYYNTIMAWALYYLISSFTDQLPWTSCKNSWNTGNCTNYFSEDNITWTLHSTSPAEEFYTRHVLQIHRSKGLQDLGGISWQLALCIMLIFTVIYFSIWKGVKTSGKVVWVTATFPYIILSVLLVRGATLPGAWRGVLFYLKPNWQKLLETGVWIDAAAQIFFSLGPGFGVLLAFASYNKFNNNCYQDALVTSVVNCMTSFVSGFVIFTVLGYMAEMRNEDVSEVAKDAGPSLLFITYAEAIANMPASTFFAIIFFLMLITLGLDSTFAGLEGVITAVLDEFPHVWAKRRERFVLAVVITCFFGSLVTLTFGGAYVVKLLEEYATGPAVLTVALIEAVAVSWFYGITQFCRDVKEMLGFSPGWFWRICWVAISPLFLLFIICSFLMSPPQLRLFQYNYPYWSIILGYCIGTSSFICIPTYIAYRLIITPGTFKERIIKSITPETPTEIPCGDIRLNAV", "test": "5-HTT functional assay (fluorescent neurotransmitter transporter uptake)", "format": "cell-based", "parameters": "SERT inhibition, replicates: unit not given here", "procedure": "The 5‐HTT/DAT functional assays were commissioned by Elsevier Science and Technology Co., Ltd. (Beijing). A fluorescence‐based neurotransmitter assay was conducted using a Neurotransmitter Transporter Uptake Assay Kit (Molecular Devices, R8174), according to the manufacturer's protocol. Flp‐in T‐rex 293 cells transiently expressing the human norepinephrine transporter and HEK293 cells stably expressing the human dopamine or serotonin transporters were seeded in PDL‐coated 384‐well plates and incubated overnight. Subsequently, the medium was removed, and the cells were treated with 16 µL of compounds diluted in assay buffer for 0.5 h at 37 °C. Centanafadine and 0.1% DMSO served as positive and negative controls, respectively. Then, 16 µL of dye mix prepared in 1× Hanks’ Balanced Salt Solution was added to each well and incubated at 37 °C for 1 h. Finally, the data point was acquired via a fluorescence plate reader with excitation at 450 nm and emission at 528 nm."}, "C57BL/6J mice after CSDS": {"tested_on": "C57BL/6J mice after CSDS", "test": "CSDS model, forced swim test", "format": "in vivo", "conditions": "single i.p. injection 10 mg kg−1", "procedure": "The 10‐day CSDS paradigm was conducted as previously described.^[ [24] ^] CD‐1 aggressive mice were singly housed in defeat cages on one side of a perforated plexiglass partition 24 h before the defeat session. Experimental C57BL/6J mice were placed daily on the resident cage side of a novel CD‐1 aggressor that rapidly initiated a physical attack on the intruder. After 10‐min of social defeat, the intruder mice were housed on the opposite side of the partition within a shared home cage, experiencing further sensory contact for the subsequent 24 h. In contrast, control mice were maintained in their home cages and allowed to explore the empty defeat cages for 10 min each day.\nMice were placed individually in a transparent glass cylinder (25 cm high, 10 cm wide) filled with water (temperature 23–25 °C) to a depth of 10 cm, and prevented from making contact with the bottom. Mice behaviors were videotaped from each side. The observation period lasted for 6 min, with the final 4 min used to measure immobile behavior, which was processed using the AnyMaze Tracking System (Stoelting)."}, "[2]": {"test": "Plasma/tissue (kidney) distribution", "format": "in vivo", "conditions": "male, C57BL/6J, mouse, ip, mice (N = 3), 10 mg/kg i.p.", "procedure": "Male C57BL/6J mice were used for both blood–brain penetration and plasma/tissue distribution studies, with mice assigned to three groups: 10 mg kg^−1 JX3212 (n = 3), 20 mg kg^−1 JX3212 (n = 3) for blood–brain penetration, and 10 mg kg^−1 JX3212 for plasma/tissue distribution (all administered via intraperitoneal injection), where mice in the blood–brain penetration groups were fasted for 12 h prior to drug administration and 2 h post‐administration; 1 h after drug administration, 0.2 mL of blood was collected from the retro‐orbital/orbital venous plexus into 1.5 mL heparinized tubes, centrifuged at 11 000 rpm for 5 min to obtain plasma (stored at −80 °C for blood–brain penetration groups), while whole brains were excised for blood–brain penetration groups and whole brains plus kidneys (rinsed with physiological saline, blotted dry on filter paper, and accurately weighed) for the plasma/tissue distribution group; plasma samples (20 µL) were mixed with 20 µL internal standard solution and 300 µL acetonitrile for protein precipitation, vortexed for 15 min, centrifuged at 3700 rpm for 15 min at 4 °C, and the supernatant was collected, whereas brain and kidney samples were homogenized in acetonitrile at 10× tissue weight (8000 rpm, 3 × 30 s), sonicated for 5 min, and processed identically to plasma samples; the concentrations of JX3212 in plasma and tissues were quantified by liquid chromatography–tandem mass spectrometry (LC−MS/MS), with lower limits of quantification set to 50 ng mL^−1 for plasma and 50 ng g^−1 for brain tissue."}, "mice": {"tested_on": "mice", "test": "Y-maze", "format": "in vivo", "conditions": "chronic 10 mg kg−1 per day", "procedure": "This test was designed to evaluate spatial working memory. Briefly, mice were individually placed in a symmetrical Y‐maze and allowed to explore for 8 min. Entries were counted only when both hind paws crossed the arm threshold. Correct spatial alternation was defined as an entry into all three arms in an uninterrupted sequence (e.g., ABC, BCA or CAB each representing one alternation). The alternation percentage was derived as: [correct alternations/(total entries–2)] × 100%. After each session, the walls and floor of the maze were wiped with 75% ethanol and allowed to dry before the next animal was tested."}, "[3]": {"tested_on": "MDA-MB-468 breast cancer cells", "test": "Cytotoxicity test (CCK-8)", "format": "cell-based", "conditions": "Homo sapiens, MDA-MB-468, 48 h, CCK-8, 48 h; read-out: IC50 against MDA-MB-468 breast cancer cells", "how_it_was_run": "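Cells seeded at 12,000/well in L15 for 24 h, then exposed 48 h to compounds at 0.41-100.00 µM (DMSO <0.4%). Viability by 10% CCK-8, 2 h at 37 °C, absorbance 450 nm, expressed as percent of control.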"}}, "note": "Values joined by “and” are separate entries in the source; they are usually repeats but may differ in a detail not shown here. Identical values can stand only once. Like-named read-outs stand apart in the source and are kept apart here."}
{"smiles": "c1ccc2c(c1)oc1ccc(Nc3ccnc(NCCCN4CCOCC4)n3)cc12", "note": "[JX3212, N^4-(dibenzo[b,d]furan-2-yl)-N^2-(3-morpholinopropyl)pyrimidine-2,4-diamine]", "values": [{"measurement": "IC50", "setting": "[1]", "value": 6.45, "unit": "µM"}, {"measurement": "SERT inhibition, replicates", "setting": "[1]; concentration 3", "value": "13.3 and 7.67"}, {"measurement": "SERT inhibition, replicates", "setting": "[1]; concentration 10", "value": "17.62 and 13.2"}, {"measurement": "SERT inhibition, replicates", "setting": "[1]; concentration 30", "value": "16.11 and 14.3"}, {"measurement": "SERT inhibition, replicates", "setting": "[1]; concentration 100", "value": "16.51 and 15.81"}, {"measurement": "SERT inhibition, replicates", "setting": "[1]; concentration 300", "value": "18.52 and 16.01"}, {"measurement": "SERT inhibition, replicates", "setting": "[1]; concentration 1000", "value": "49.66 and 31.98"}, {"measurement": "SERT inhibition, replicates", "setting": "[1]; concentration 3000", "value": "51.87 and 29.87"}, {"measurement": "SERT inhibition, replicates", "setting": "[1]; concentration 10000", "value": "69.95 and 46.05"}, {"measurement": "SERT inhibition, replicates", "setting": "[1]; concentration 30000", "value": "87.23 and 70.86"}, {"measurement": "SERT inhibition, replicates", "setting": "[1]; concentration 100000 (unit not given)", "value": "112.04 and 105.72"}, {"measurement": "CSDS: immobility in FST (in words)", "setting": "C57BL/6J mice after CSDS", "value": "reduced immobility duration"}, {"measurement": "concentration at 1 h", "setting": "[2]; kidney, read-out: Kidney Calculated Concentration", "value": "18400 ± 681", "unit": "ng/mL"}, {"measurement": "Kp at 1 h", "setting": "[2]; kidney/plasma", "value": "78.9 ± 2.74"}, {"measurement": "concentration at 1 h", "setting": "[2]; plasma, read-out: Plasma Calculated Concentration", "value": "234 ± 14.4", "unit": "ng/mL"}, {"measurement": "Y-maze alternation percentage vs vehicle (in words)", "setting": "mice", "value": "showed no effects"}, {"measurement": "IC50", "setting": "[3]", "value": "13.7 ± 0.61", "unit": "µM"}]}
